Test results published in US12077503B2, “Substituted cyclic amides and their use as herbicides” (FMC CORPORATION, priority 2015, dated 2024).

Experiments:
Type in all cases: in vivo
[1] = test system: ducksalad (Heteranthera limosa); test: Test B flooded paddy test; details: Heteranthera limosa, 250 g ai/ha, Flood; 0 to 100 scale where 0 is no effect and 100 is complete control; read-out: Ducksalad plant response rating
Procedure, shortened: (§1)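 Greenhouse paddy pots with 2-leaf stage plants received compound by direct addition to floodwater 3 cm deep, kept at that level. Scored visually at 13–15 d versus controls (0 no effect; 100 complete control).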

rice (Oryra sativa) = test: Test B flooded paddy test; details: Oryza sativa, 250 g ai/ha, Flood; 0 to 100 scale where 0 is no effect and 100 is complete control; read-out: Rice plant response rating
Procedure, shortened: as §1

[2] = test system: barnyardgrass (Echinochloa crus-galli); test: Test B flooded paddy test; details: Echinochloa crus-galli, 250 g ai/ha, Flood; 0 to 100 scale where 0 is no effect and 100 is complete control; read-out: Barnyardgrass plant response rating
Procedure, shortened: as §1

[3] = test system: sedge, umbrella (small-flower umbrella sedge, Cyperus difformis); test: Test B flooded paddy test; details: Cyperus difformis, 250 g ai/ha, Flood; 0 to 100 scale where 0 is no effect and 100 is complete control; read-out: Sedge, Umbrella plant response rating
Procedure, shortened: as §1

[4] = test system: wheat (Triticum aestivum); test: Test A postemergence; details: Triticum aestivum, post-emergence, 240 h
Procedure, shortened: (§2)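 Compounds were formulated in a non-phytotoxic solvent mixture with surfactant and applied as a preemergence directed soil spray after seeding, or sprayed postemergence over plants 2 to 10 cm tall at the one- to two-leaf stage. Evaluation after about 10 d compared treated with untreated controls, using a scale from 0 (no effect) to 100 (complete control).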

[5] = test system: pigweed (Amaranthus retroflexus); test: Test A postemergence; details: Amaranthus retroflexus, post-emergence, 240 h
Procedure, shortened: as §2

[6] = test system: Galium (catchweed bedstraw, Galium aparine); test: Test A postemergence; details: Galium, post-emergence, 240 h
Procedure, shortened: as §2

[7] = test system: ryegrass, Italian (Italian ryegrass, Lolium multiflorum); test: Test A postemergence; details: Lolium multiflorum, post-emergence, 240 h
Procedure, shortened: as §2

[8] = test system: giant foxtail (Setaria faberii); test: Test A postemergence; details: Setaria faberi, post-emergence, 240 h
Procedure, shortened: as §2

[9] = test system: barnyardgrass (Echinochloa crus-galli); test: Test A postemergence; details: Echinochloa crus-galli, post-emergence, 240 h
Procedure, shortened: as §2

corn (Zea mays) = test: Test A postemergence; details: Zea mays, post-emergence, 240 h
Procedure, shortened: as §2

[10] = test system: blackgrass (Alopecurus myosuroides); test: Test A postemergence; details: Alopecurus myosuroides, post-emergence, 240 h
Procedure, shortened: as §2

Kochia (Kochia scoparia) [11] = test: Test A postemergence; details: Bassia scoparia, post-emergence, 240 h
Procedure, shortened: as §2

[12] = test system: ragweed (common ragweed, Ambrosia elatior); test: Test A postemergence; details: Ambrosia artemisiifolia, post-emergence, 240 h
Procedure, shortened: as §2

[13] = test system: pigweed (Amaranthus retroflexus); test: Test A preemergence; details: Amaranthus retroflexus, pre-emergence, 240 h, 0 to 100 scale where 0 is no effect and 100 is complete control, read-out: Pigweed plant response rating
[14] = test system: ryegrass, Italian (Italian ryegrass, Lolium multiflorum); test: Test A preemergence; details: Lolium multiflorum, pre-emergence, 240 h, 0 to 100 scale where 0 is no effect and 100 is complete control, read-out: Ryegrass, Italian plant response rating
Procedure, shortened: as §2

[15] = test system: giant foxtail (Setaria faberii); test: Test A preemergence; details: Setaria faberi, pre-emergence, 240 h, 0 to 100 scale where 0 is no effect and 100 is complete control, read-out: Foxtail, Giant plant response rating
Procedure, shortened: as §2

[16] = test system: barnyardgrass (Echinochloa crus-galli); test: Test A preemergence; details: Echinochloa crus-galli, pre-emergence, 240 h, 0 to 100 scale where 0 is no effect and 100 is complete control, read-out: Barnyardgrass plant response rating
Procedure, shortened: as §2

Kochia (Kochia scoparia) [17] = test: Test A preemergence; details: Bassia scoparia, pre-emergence, 240 h, 0 to 100 scale where 0 is no effect and 100 is complete control, read-out: Kochia plant response rating
Procedure, shortened: as §2

[18] = test system: ragweed (common ragweed, Ambrosia elatior); test: Test A preemergence; details: Ambrosia artemisiifolia, pre-emergence, 240 h, 0 to 100 scale where 0 is no effect and 100 is complete control, read-out: Ragweed plant response rating
Procedure, shortened: as §2

[19] = 125 g ai/ha, preemergence, approx. 10 d

## CN1CC(c2cccc(C(F)(F)F)c2)C(C(=O)Nc2ccccc2CO)C1=O (stereo not drawn) [Compound 1145]
[1]
  pest or weed control at 250 g/ha: 60%
Rice (Oryra sativa)
  pest or weed control at 250 g/ha: 30%
[2]
  pest or weed control at 250 g/ha: 75%
[3]
  pest or weed control at 250 g/ha: 40%
[4]; 125 g ai/ha, postemergence, visual injury vs untreated controls after approx. 10 d, 0 = no effect, 100 = complete control, read-out: Wheat plant response rating (0 to 100 scale)
  plant injury at 125 g/ha: 40%
[4]; Postemergence, 31 g ai/ha, visual injury after approx. 10 d, 0 to 100 scale, 0 no effect, 100 complete control, read-out: Plant response rating, Wheat
  plant injury at 31 g/ha: 0%
[5]; 125 g ai/ha, postemergence, visual injury vs untreated controls after approx. 10 d, 0 = no effect, 100 = complete control, read-out: Pigweed plant response rating (0 to 100 scale)
  pest or weed control at 125 g/ha: 0%
[5]; Postemergence, 31 g ai/ha, visual injury after approx. 10 d, 0 to 100 scale, 0 no effect, 100 complete control, read-out: Plant response rating, Pigweed
  pest or weed control at 31 g/ha: 0%
[6]; 125 g ai/ha, postemergence, visual injury on 0 to 100 scale (0 no effect, 100 complete control), approx. 10 d, read-out: Galium plant response rating
  pest or weed control at 125 g/ha: 0%
[6]; Postemergence, 31 g ai/ha, visual injury after approx. 10 d, 0 to 100 scale, 0 no effect, 100 complete control, read-out: Plant response rating, Galium
  pest or weed control at 31 g/ha: 0%
[7]; 125 g ai/ha, postemergence, visual injury vs untreated controls after approx. 10 d, 0 = no effect, 100 = complete control, read-out: Ryegrass, Italian plant response rating (0 to 100 scale)
  pest or weed control at 125 g/ha: 20%
[7]; Postemergence, 31 g ai/ha, visual injury after approx. 10 d, 0 to 100 scale, 0 no effect, 100 complete control, read-out: Plant response rating, Ryegrass, Italian
  pest or weed control at 31 g/ha: 0%
[8]; 125 g ai/ha, postemergence, visual injury on 0 to 100 scale (0 no effect, 100 complete control), approx. 10 d, read-out: Foxtail, Giant plant response rating
  pest or weed control at 125 g/ha: 90%
[8]; Postemergence, 31 g ai/ha, visual injury after approx. 10 d, 0 to 100 scale, 0 no effect, 100 complete control, read-out: Plant response rating, Foxtail, Giant
  pest or weed control at 31 g/ha: 50%
[9]; 125 g ai/ha, postemergence, visual injury on 0 to 100 scale (0 no effect, 100 complete control), approx. 10 d, read-out: Barnyardgrass plant response rating
  pest or weed control at 125 g/ha: 80%
[9]; Postemergence, 31 g ai/ha, visual injury after approx. 10 d, 0 to 100 scale, 0 no effect, 100 complete control, read-out: Plant response rating, Barnyardgrass
  pest or weed control at 31 g/ha: 60%
Corn (Zea mays); 125 g ai/ha, postemergence, visual injury on 0 to 100 scale (0 no effect, 100 complete control), approx. 10 d, read-out: Corn plant response rating
  plant injury at 125 g/ha: 50%
Corn (Zea mays); Postemergence, 31 g ai/ha, visual injury after approx. 10 d, 0 to 100 scale, 0 no effect, 100 complete control
  Corn plant response rating (crop injury, 0 = no effect, 100 = complete kill) at 31 g/ha: 0%
[10]; 125 g ai/ha, postemergence, visual injury on 0 to 100 scale (0 no effect, 100 complete control), approx. 10 d, read-out: Blackgrass plant response rating
  pest or weed control at 125 g/ha: 50%
[10]; Postemergence, 31 g ai/ha, visual injury after approx. 10 d, 0 to 100 scale, 0 no effect, 100 complete control, read-out: Plant response rating, Blackgrass
  pest or weed control at 31 g/ha: 0%
Kochia (Kochia scoparia) [11]; 125 g ai/ha, postemergence, visual injury on 0 to 100 scale (0 no effect, 100 complete control), approx. 10 d, read-out: Kochia plant response rating
  pest or weed control at 125 g/ha: 0%
Kochia (Kochia scoparia) [11]; Postemergence, 31 g ai/ha, visual injury after approx. 10 d, 0 to 100 scale, 0 no effect, 100 complete control, read-out: Plant response rating, Kochia
  pest or weed control at 31 g/ha: 0%
[12]; 125 g ai/ha, postemergence, visual injury vs untreated controls after approx. 10 d, 0 = no effect, 100 = complete control, read-out: Ragweed plant response rating (0 to 100 scale)
  pest or weed control at 125 g/ha: 0%
[12]; Postemergence, 31 g ai/ha, visual injury after approx. 10 d, 0 to 100 scale, 0 no effect, 100 complete control, read-out: Plant response rating, Ragweed
  pest or weed control at 31 g/ha: 0%
[13]; 31 g ai/ha, Preemergence
  pest or weed control at 31 g/ha: 0%
[13]; [19]
  pest or weed control at 125 g/ha: 0%
[14]; 31 g ai/ha, Preemergence
  pest or weed control at 31 g/ha: 0%
[14]; [19]
  pest or weed control at 125 g/ha: 30%
[15]; 31 g ai/ha, Preemergence
  pest or weed control at 31 g/ha: 90%
[15]; [19]
  pest or weed control at 125 g/ha: 90%
[16]; 31 g ai/ha, Preemergence
  pest or weed control at 31 g/ha: 80%
[16]; [19]
  pest or weed control at 125 g/ha: 90%
Kochia (Kochia scoparia) [17]; 31 g ai/ha, Preemergence
  pest or weed control at 31 g/ha: 0%
Kochia (Kochia scoparia) [17]; [19]
  pest or weed control at 125 g/ha: 50%
[18]; 31 g ai/ha, Preemergence
  pest or weed control at 31 g/ha: 0%
[18]; [19]
  pest or weed control at 125 g/ha: 0%
